pIC50: −log10 of the molar value.
Tests used:
Assay type in all cases: biochemical
MCL-1 = assay: In vitro transcription-translation (IVTT) assay, MCL-1 reporter; settings: HeLa S3 lysate, sfGFP/mCherry ratio, 2 hrs at 30° C.
Text: (§1) All reporter constructs have been cloned into the pT7CFE1-CHis plasmid (ThermoFisher #88860) using Gibson assembly procedures (NEB #E2611L). The parental pT7CFE1-CHis plasmid contains an EMCV IRES at the 5′UTR for translation initiation, a multiple-cloning site (MCS) for gene insertion, an optional C-terminal His-epitope tag, and polyA sequence in the 3′UTR to regulate mRNA stability. All reporters are designed to be inserted at the MCS to include a red fluorescent protein (mCherry), P2A self-cleaving peptide which releases the preceding mCherry protein product, and a fusion open reading frame containing a 3×FLAG epitope, a peptide sequence of interest (TEST), and green fluorescent protein (sfGFP).
(§2) Construct Plasmid Preparation: All plasmids are isolated from MACH1 cells (ThermoFisher) grown overnight in ampicillin-containing luria broth, and purified using ZymoPure Express Plasmid Midiprep Kit (Zymo Research). Constructs are sequenced verified and diluted to a working concentration of 110 ng/μL.
(§3) HeLa S3 Lysate Preparation: HeLa S3 cell pellets are acquired from Ipracell/Ipratech (Belgium) and shipped as 4 mL frozen cell pellets on dry ice for storage at −80° C. until use. The procedure for lysate preparation is as follows. Prepare 1× Lysis Buffer, cold and stored on ice:
(§4) Each preparation takes 8 cell pellets (4 ml packed volume each, approximately 1.0×10^9 cells per pellet). Thaw cell pellets from −80° C. on ice for 90 mins. Lay pellets horizontally on top of the ice and rotate every 30 mins to ensure even thawing. Once thawed, add 4 mL of cold lysis buffer to each pellet, and using a serological pipet, gently pipet up and down to break up clumps. Incubate resuspended cells in ice for an additional 30 mins (plunged into ice). During 30 min incubation, rinse and RNase-zap (Ambion) glass dounces (use loose pestle “A”), gently dry and place on ice until needed. Prepare RNase-free Eppendorf tubes for spinning and for batch storage. Add batch labels to 1.5-1.7 mL RNase-free microcentrifuge tubes (labeling scheme below). Each batch will have an extra 1.5-1.7 mL RNase-free microcentrifuge tube for 40 μL of lysate, label the top of this tube (labeling scheme below). After 30 min incubation, transfer all 8 mL of cell pellet to dounce. Cell lysis is complete after douncing 100 times. Aliquot cell lysis into 1.5-1.7 mL temporary-microcentrifuge tubes. Place tubes in centrifuge with “fins” out, and spin at 1,200×g for 5 mins. After the first spin use a 1 mL pipet to resuspend each tube and repeat spin. This acts as an additional lysis step, is more vigorous and increases lysate yield. During second spin get liquid N2 and a fresh conical tube on ice. After spin is complete, transfer supernatant (lysate) from microcentrifuge tubes into the 50 mL conical tube and keep on ice. Repeat steps 10-14 for all other cell pellets until completed. Once all cell lysate has been transferred to the 50 mL conical tube pipet to mix so the solution is homogenous. Transfer 1 mL of lysate into batch-labeled microcentrifuge tubes and flash freeze in liquid nitrogen. Be sure to pipet up and down to mix throughout transfer step. Place all tubes in the […] for long-term storage.
(§5) In vitro transcription-translation assay setup: Each assay includes a master mix containing lysate and shared components, a 96-well plate containing compound titrations for testing, a 96-well DNA plate with reporter constructs to be tested, 96-well skirted PCR plates, and 96-well flat-bottom, black, fluorescent assay plates. […]

MYC = assay: In vitro transcription-translation (IVTT) assay, MYC reporter; settings: HeLa S3 lysate, 2 hrs at 30° C.
Text: as §1, §2, §3, §4, §5

CCND1 = assay: In vitro transcription-translation (IVTT) assay, CCND1 reporter; settings: HeLa S3 lysate, 2 hrs at 30° C.
Text: as §1, §2, §3, §4, §5

[1] = IVTT assay, MYC reporter, normalized sfGFP/mCherry ratio, half-log dilutions 30 μM-0.1 μM

pIC50 (MCL-1) | pIC50 (MYC; sfGFP/mCherry ratio) | pIC50 (CCND1; sfGFP/mCherry ratio) | pIC50 (CCND1; IVTT) | SMILES | pIC50 (MYC; [1])
> 5.00 | < 4.52 | 4.52 to 4.70 |  | COc1ccc(C[C@H]2NC[C@H](O)[C@H]2OC(=O)NCc2cc(C(F)(F)F)[nH]n2)cc1 [Cmpd V187861] | 
< 4.52 | < 4.52 | < 4.52 |  | COc1ccc(C[C@H]2NC[C@H](O)[C@H]2NC(=O)OCc2ccccc2)cc1 [Cmpd V187864] | 
> 5.00 |  | > 5.00 |  | [H]/N=C(/N)c1cccc(CNC(=O)O[C@@H]2[C@@H](O)CN[C@@H]2Cc2ccc(OC)cc2)c1 [Cmpd V187989] | 
4.70 to 5.00 | 4.70 to 5.00 | 4.70 to 5.00 |  | [H]/N=C(\N)CNC(=O)O[C@@H]1[C@@H](O)CN[C@@H]1Cc1ccc(OC)cc1 [Cmpd V187993] | 
4.70 to 5.00 | 4.52 to 4.70 | < 4.52 |  | COc1ccc(C[C@H]2NC[C@H](O)[C@H]2OC(=O)NC[C@@H]2CNC[C@@H]2O)cc1 [Cmpd V188116] | 
4.70 to 5.00 | < 4.52 |  |  | COc1ccc(C[C@H]2NC[C@H](O)[C@H]2OC(=O)NCC2CNC2)cc1 [V187599, (2R,3S,4S)-4-hydroxy-2-[(4-methoxyphenyl)methyl]pyrrolidin-3-yl N-(azetidin-3-ylmethyl)carbamate] | 
> 5.00 | 4.70 to 5.00 |  |  | COc1ccc(C[C@H]2NC[C@H](O)[C@H]2OC(=O)NCCC2CNC2)cc1 [V187600, (2R,3S,4S)-4-hydroxy-2-[(4-methoxyphenyl)methyl]pyrrolidin-3-yl N-[2-(azetidin-3-yl)ethyl]carbamate] | 
> 5.00 | > 5.00 | > 5.00 |  | COc1ccc(C[C@H]2NC[C@H](O)[C@H]2OC(=O)NCC2CC(F)(F)C2)cc1 [V187862, (2R,3S,4S)-4-hydroxy-2-[(4-methoxyphenyl)methyl]pyrrolidin-3-yl N-[(3,3-difluorocyclobutyl)methyl]carbamate] | 
> 5.00 | > 5.00 | > 5.00 |  | O=C(NCCc1ccncc1)O[C@@H]1[C@@H](O)CN[C@@H]1Cc1ccc(-c2cn(Cc3cn[nH]c3)nn2)cc1 [V187948, (2R,3S,4S)-4-hydroxy-2-({4-[1-(1H-pyrazol-4-ylmethyl)-1,2,3-triazol-4-yl]phenyl}methyl)pyrrolidin-3-yl N-[2-(pyridin-4-yl)ethyl]carbamate] | 
> 5.00 | 4.70 to 5.00 | > 5.00 |  | O=C(NCCc1ccncc1)O[C@@H]1[C@@H](O)CN[C@@H]1Cc1ccc(-c2cn(-c3ccc(Cl)cc3)nn2)cc1 [V187950, (2R,3S,4S)-2-({4-[1-(4-chlorophenyl)-1,2,3-triazol-4-yl]phenyl}methyl)-4-hydroxypyrrolidin-3-yl N-[2-(pyridin-4-yl)ethyl]carbamate] | 
> 5.00 | 4.52 to 4.70 | > 5.00 |  | COc1ccc(C[C@H]2NC[C@H](O)[C@H]2OC(=O)NCC(N)=O)cc1 [V188002, (2R,3S,4S)-4-hydroxy-2-[(4-methoxyphenyl)methyl]pyrrolidin-3-yl N-(carbamoylmethyl)carbamate] | 
> 5.00 | > 5.00 | > 5.00 |  | COc1ccc(C[C@H]2NC[C@H](O)[C@H]2OC(=O)NCc2cnc(N)nc2)cc1 [V188037, (2R,3S,4S)-4-hydroxy-2-[(4-methoxyphenyl)methyl]pyrrolidin-3-yl N-[(2-aminopyrimidin-5-yl)methyl]carbamate] | 
< 4.52 | < 4.52 | < 4.52 |  | COc1ccc(C[C@H]2NC[C@H](O)[C@H]2OC(=O)NCCNc2ncccn2)cc1 [V188058] | 
 | < 4.52 | < 4.52 |  | COc1ccc(C[C@H]2NC[C@H](O)[C@H]2OC(=O)NCCn2cnc3ccccc32)cc1 [V188090, (2R,3S,4S)-4-hydroxy-2-[(4-methoxyphenyl)methyl]pyrrolidin-3-yl N-[2-(1,3-benzodiazol-1-yl)ethyl]carbamate] | 
 | 4.52 to 4.70 | < 4.52 |  | COc1ccc(C[C@H]2NC[C@H](O)[C@H]2OC(=O)NC[C@@H]2CNC[C@H]2O)cc1 [V188093, (2R,3S,4S)-4-hydroxy-2-[(4-methoxyphenyl)methyl]pyrrolidin-3-yl N-{[(3S,4S)-4-hydroxypyrrolidin-3-yl]methyl}carbamate] | 
 | 4.70 to 5.00 | < 4.52 |  | COc1ccc(C[C@H]2NC[C@H](O)[C@H]2OC(=O)NC[C@@H]2CCN(C)C2)cc1 [V188109, (2R,3S,4S)-4-hydroxy-2-[(4-methoxyphenyl)methyl]pyrrolidin-3-yl N-{[(3S)-1-methylpyrrolidin-3-yl]methyl}carbamate] | 
 |  |  | < 4.52 | COc1ccc(C[C@H]2NC[C@H](O)[C@H]2OC(=O)N[C@H](C)c2ccccc2)cc1 [V191970, (2R,3S,4S)-4-hydroxy-2-[(4-methoxyphenyl)methyl]pyrrolidin-3-yl N-[(1R)-1-phenylethyl]carbamate] | < 4.52
 |  |  |  | CNC(=O)O[C@@H]1[C@@H](O)CN[C@@H]1Cc1ccc(-c2cn(-c3cc4ccc(O)cc4oc3=O)nn2)cc1 [V193432, (2R,3S,4S)-4-hydroxy-2-(4-(1-(7-hydroxy-2-oxo-2H-chromen-3-yl)-1H-1,2,3-triazol-4-yl)benzyl)pyrrolidin-3-yl methylcarbamate] | > 5.00
 |  |  |  | O=C(NCC[C@H]1CCCO1)O[C@@H]1[C@@H](O)CN[C@@H]1Cc1ccc(-c2cncs2)cc1 [V193641, (2R,3S,4S)-4-hydroxy-2-(4-(thiazol-5-yl)benzyl)pyrrolidin-3-yl (2-((R)-tetrahydrofuran-2-yl)ethyl)carbamate] | > 5.00
 |  |  |  | O=C(NCC[C@@H]1CCOC1)O[C@@H]1[C@@H](O)CN[C@@H]1Cc1ccc(-c2cncs2)cc1 [V193642, (2R,3S,4S)-4-hydroxy-2-(4-(thiazol-5-yl)benzyl)pyrrolidin-3-yl (2-((R)-tetrahydrofuran-3-yl)ethyl)carbamate] | > 5.00
 |  |  |  | O=C(NCC[C@H]1CCOC1)O[C@@H]1[C@@H](O)CN[C@@H]1Cc1ccc(-c2cncs2)cc1 [V193643, (2R,3S,4S)-4-hydroxy-2-(4-(thiazol-5-yl)benzyl)pyrrolidin-3-yl (2-((S)-tetrahydrofuran-3-yl)ethyl)carbamate] | > 5.00
 |  |  |  | O=C(NCC[C@H]1C[C@@H](O)C1)O[C@@H]1[C@@H](O)CN[C@@H]1Cc1ccc(-c2cncs2)cc1 [V193644, (2R,3S,4S)-4-hydroxy-2-(4-(thiazol-5-yl)benzyl)pyrrolidin-3-yl (2-((1s,3S)-3-hydroxycyclobutyl)ethyl)carbamate] | > 5.00
 |  |  |  | O=C(NCC[C@H]1C[C@H](O)C1)O[C@@H]1[C@@H](O)CN[C@@H]1Cc1ccc(-c2cncs2)cc1 [V193645, (2R,3S,4S)-4-hydroxy-2-(4-(thiazol-5-yl)benzyl)pyrrolidin-3-yl (2-((1r,3R)-3-hydroxycyclobutyl)ethyl)carbamate] | > 5.00
 |  |  |  | O=C(NCCc1cn[nH]c1)O[C@@H]1[C@@H](O)CN[C@@H]1Cc1ccc(-c2cncs2)cc1 [V193646, (2R,3S,4S)-4-hydroxy-2-(4-(thiazol-5-yl)benzyl)pyrrolidin-3-yl (2-(1H-pyrazol-4-yl)ethyl)carbamate] | > 5.00
 |  |  |  | O=C(NCCc1cnoc1)O[C@@H]1[C@@H](O)CN[C@@H]1Cc1ccc(-c2cncs2)cc1 [V193647, (2R,3S,4S)-4-hydroxy-2-(4-(thiazol-5-yl)benzyl)pyrrolidin-3-yl (2-(isoxazol-4-yl)ethyl)carbamate] | > 5.00
 |  |  |  | CC(C)CCNC(=O)O[C@@H]1[C@@H](O)CN[C@@H]1Cc1ccc(-c2cncs2)cc1 [V193648, (2R,3S,4S)-4-hydroxy-2-(4-(thiazol-5-yl)benzyl)pyrrolidin-3-yl isopentylcarbamate] | > 5.00
